Test results reported in PMC11323243, “Novel Inhibitors of SARS-CoV-2 RNA Identified through Virtual Screening” (Journal of Chemical Information and Modeling, 2024).
Entries after “also recorded” stand apart in the source; their conditions may differ.

System: Omicron (BA.1) SARS-CoV-2
Test: Antiviral activity, plaque reduction assay on Vero E6 cells
Type: cell-based
Details: for EC50: Severe acute respiratory syndrome coronavirus 2, Vero C1008, 72 h, read-out: EC50, effective concentration inhibiting 50% of the virus

Cc1nc(CN)cc(N2CCC(C(O)c3nccn3C)CC2)n1 (centres unmarked) [Compound 32807865]
EC50: > 100 µM

Cc1cc2c(cc1CN1CC(CO)C(CN3CCCC3)C1)OCO2 (centres unmarked) [Compound 789]
EC50: 44 µM

OCC1CN(Cc2cc3c(cc2Cl)OCO3)CC1CN1CCCCCC1 (centres unmarked) [Compound 269]
antiviral activity against SARS-CoV-2 (in words): retained activity against the wild-type virus albeit with reduced potency | EC50: 53.9 µM

OC1CN(Cc2cccc3cc[nH]c23)CCN(c2ccncc2)C1 (centres unmarked) [Compound 229]
EC50: 26.8 µM

OCC1CN(Cc2cc3c(cc2Cl)OCO3)CC1CN1CCOCC1 (centres unmarked) [Compound 178]
antiviral activity against SARS-CoV-2 (in words): decrease in potency | EC50: 103 µM

Clc1ccc2c(N3CCN(CCCN4CCN(c5ccnc6cc(Cl)ccc56)CC4)CC3)ccnc2c1 [piperaquine, reference compound]
EC50: 11.6 µM

Cc1cc2c(cc1CN1CC(CO)C(CN3CCN(C)CC3)C1)OCCO2 (centres unmarked) [Compound 782]
EC50: 4.07 µM

OC1CCCN(C2CCN(Cc3ncc[nH]3)CC2)C1 (centres unmarked) [Compound 21256088]
EC50: > 100 µM

NCCc1ccc(CN2CCC(O)(c3cccc(C(F)(F)F)c3)CC2)cc1 [Compound 188]
EC50: 17.2 µM

Cc1cc2c(cc1CN1CC(CO)C(CN3CCCCCC3)C1)OCCO2 (centres unmarked) [Compound 194]
EC50: 28.9 µM

CN(C)CCN(C)CC1CN(Cc2ccc3c(c2)OCCO3)CC1CO (centres unmarked) [Compound 570]
EC50: 38.5 µM

Cc1cc2c(cc1CN1CC(CO)C(CN3CCOCC3)C1)OCCO2 (centres unmarked) [Compound 325]
antiviral activity against SARS-CoV-2 (in words): did not inhibit wild-type virus; also recorded: loss of antiviral activity against SARS-CoV-2
